Common to all, as to assay: NCI-60 cell line screen, 48 h
Test [1] deals with OVCAR-3.
The test system of test [2] is RPMI-8226.
Test [3] concerns HCT-116.
The subject of test [4] is SK-MEL-5.
The subject of test [5] is DU-145.
The subject of test [6] is KM12.
Test [7] has as its system MDA-N.
For test [8], the system named is CAKI-1.
Test [9] deals with UACC-257.
Test [10] has as its system BT-549.
Test [11] has as its system SF-295.
Test [12] relates to NCI-H23.
For test [13], the system named is HCT-15.
Test [14] concerns SW-620.
The subject of test [15] is SNB-19.
Test [16] relates to NCI/ADR-RES.
Test [17] has as its system RXF 393.
The test system of test [18] is M14.
The test system of test [19] is OVCAR-8.

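Interpolation was linear, between the two tested concentrations surrounding the appropriate level; five concentrations were tested over 48 hours in 96-well plates. GI50: concentration for 50% inhibition of growth.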 Activity calls are given as the source filed them. Rule as the data show it: active = GI50 up to about 1.1 µM and inactive = higher. A value given as a limit tells only on which side of the number the result lay.

In the case of `Nc1nc(N)c(-c2cccc(C(F)(F)F)c2)c(Cc2cccc(C(F)(F)F)c2)n1`, the GI50 in [1] was 6.03 µM (inactive); in [2], 6.73 µM (inactive); in test [3], 0.64 µM (active); in test [4], 2.98 µM (inactive); in [5] it was 7.71 µM (inactive); in test [6], 5.15 µM (inactive). The GI50 in test [7] was 0.689 µM (active); in [8], 7.23 µM (inactive); in test [9] it was 3.43 µM (inactive); in [10], 10.2 µM (inactive); in test [11] it was 1.52 µM (inactive); in test [12] it was 2.01 µM (inactive). The GI50 in test [13] is 1.44 µM; in test [14], 7.33 µM (inactive); in test [15], 5.7 µM (inactive); in test [16], 7.57 µM (inactive); in [17] it was 3.34 µM (inactive); in [18] it was 1.22 µM (inactive). In addition, the GI50 in test [19] was 8.49 µM (inactive).

With `Nc1nncc2[nH]cnc12`, the GI50 in test [1] is > 100 µM (inactive); in [2], 14.4 µM (inactive); in test [3], 36.6 µM (inactive); in [4], 24.2 µM (inactive); in test [5], > 62.5 µM (inactive); in test [6], 44.1 µM (inactive). Besides, the GI50 was 49.5 µM (inactive) in [7]; 66.2 µM (inactive) in test [8]; 63.5 µM (inactive) in test [9]; 26.9 µM (inactive) in [10]; 42.8 µM (inactive) in test [11]; 44.4 µM in test [13]. In addition, the GI50 was 31 µM (inactive) in test [14]; > 100 µM (inactive) in test [15]; 94 µM (inactive) in test [16]; > 100 µM (inactive) in test [17]; 35.2 µM (inactive) in test [18]; 22.5 µM (inactive) in [19].

Turning to `N#Cc1c(-c2ccccc2)nc(-c2ccccc2)sc1=S`, the GI50 in test [1], in test [2], in test [3], in test [4], in [5] and in [6] was > 100 µM (inactive) throughout. The GI50 in [7], in [8], in [9], in test [10], in test [11] and in test [12] was > 100 µM (inactive) in each case. Further, the GI50 in [13] is over 100 µM; in [14], > 100 µM (inactive); in [15], > 100 µM (inactive); in test [16] it was > 100 µM (inactive); in test [17], > 100 µM (inactive); in [18] it was > 100 µM (inactive). Further, the GI50 in [19] was > 100 µM (inactive).

`CC(=O)NC1C(OCc2ccccc2)OC(CO)C(O)C1OC(C)C(=O)N[C@@H](C)C(=O)N[C@H](CCC(=O)NCCNCCNc1c2ccccc2nc2cccc([N+](=O)[O-])c12)C(N)=O` (some centres not stated): the GI50 was 0.226 µM (active) in test [1]; 0.0698 µM (active) in test [2]; 0.0214 µM (active) in test [3]; 0.0159 µM (active) in test [4]; 0.0241 µM (active) in test [5]; 0.0783 µM (active) in test [6]. For the same compound, the GI50 was 0.0708 µM (active) in [7]; 0.0634 µM (active) in test [8]; 0.108 µM (active) in test [9]; 0.0698 µM (active) in [10]; 0.207 µM (active) in [11]; 0.022 µM (active) in [12]. The GI50 in test [13] is 0.153 µM; in test [14] it was 0.0266 µM (active); in test [15], 0.29 µM (active); in test [16], 1.73 µM (inactive); in test [17], 0.0169 µM (active); in test [18], 0.0993 µM (active). The GI50 in [19] is 0.11 µM (active).

For `O=C(O)Cc1ccc(/N=N/c2c(O)c(C(=O)O)cc3ccccc23)cc1`, the GI50 was > 100 µM (inactive) in test [1]; > 100 µM (inactive) in test [2]; > 100 µM (inactive) in test [3]; 71.8 µM (inactive) in test [4]; > 100 µM (inactive) in test [5]; > 100 µM (inactive) in test [6]. For the same compound, the GI50 in test [7] was > 100 µM (inactive); in test [8], > 100 µM (inactive); in test [9] it was > 100 µM (inactive); in test [10], > 100 µM (inactive); in test [11] it was > 100 µM (inactive); in test [13] it was over 100 µM. For the same compound, the GI50 in [14], in test [15], in test [16], in test [17], in test [18] and in test [19] was > 100 µM (inactive) throughout.

For the compound `CC(C)(Cc1ccccc1)N1C(=O)N1C(C)(C)Cc1ccccc1`, the GI50 is > 100 µM (inactive) in test [1]; 16.5 µM (inactive) in test [2]; 40.6 µM (inactive) in test [3]; 14.1 µM (inactive) in test [4]; > 100 µM (inactive) in test [5]; > 100 µM (inactive) in [6]. The GI50 in [7] was 38.8 µM (inactive); in test [8], > 100 µM (inactive); in [9], 40.9 µM (inactive); in test [10] it was 29.4 µM (inactive); in test [12], 24 µM (inactive); in test [13], 21.4 µM. Besides, the GI50 in [14] is 57 µM (inactive); in test [15] it was > 100 µM (inactive); in [16], > 100 µM (inactive); in test [17], 14.8 µM (inactive); in test [18], 34.8 µM (inactive); in test [19], > 100 µM (inactive).

On to `CC1(C(=O)O)CCCC1C(=O)O` (configuration not stated), for which the GI50 in [1] is > 100 µM (inactive); in [2], 4.51 µM (inactive); in test [3], > 100 µM (inactive); in [4], > 100 µM (inactive); in test [5] it was > 100 µM (inactive); in test [6] it was > 100 µM (inactive). Further, the GI50 in [7], in [8], in test [9], in test [10], in test [11] and in [12] was > 100 µM (inactive) each time. The GI50 in test [13] is over 100 µM; in test [14], > 100 µM (inactive); in test [15], > 100 µM (inactive); in [16], > 100 µM (inactive); in test [17] it was > 100 µM (inactive); in test [18], > 100 µM (inactive). Moreover, the GI50 in [19] is > 100 µM (inactive).

`CCOC(=O)CCC(NC(=O)c1ccc(Nc2nc3ccccc3nc2C(=O)OCC)s1)C(=O)OCC` (configuration not stated): the GI50 in [1] was > 100 µM (inactive); in test [2], > 100 µM (inactive); in [3] it was > 100 µM (inactive); in [4], > 100 µM (inactive); in [5], > 100 µM (inactive); in test [6], 85.1 µM (inactive). Also, the GI50 in test [7] was > 100 µM (inactive); in [8] it was 81.3 µM (inactive); in test [9] it was > 100 µM (inactive); in test [10], 46 µM (inactive); in test [13], over 100 µM; in test [14], > 100 µM (inactive). Besides, the GI50 in test [15] was 95.1 µM (inactive); in [16], 19.9 µM (inactive); in test [17], 66.1 µM (inactive); in test [18] it was > 100 µM (inactive); in test [19], 19.5 µM (inactive).

Turning to `CC(C)(C)C(=O)CP(=O)(O)O`, the GI50 in test [1], in test [2], in [3], in test [4], in test [5] and in [6] was > 100 µM (inactive) each time. Further, the GI50 in test [7], in test [8], in test [9], in test [10], in test [11] and in test [12] was > 100 µM (inactive) in each case. Further, the GI50 is over 100 µM in [13]; > 100 µM (inactive) in [14]; > 100 µM (inactive) in [15]; > 100 µM (inactive) in test [16]; > 100 µM (inactive) in test [17]; > 100 µM (inactive) in test [18]. Further, the GI50 in test [19] was > 100 µM (inactive).

Take `NS(=O)(=O)c1ccc(CNc2nc(-c3cccs3)nc3ccc(I)cc23)cc1`: the GI50 was 11.2 µM (inactive) in [1]; 18.6 µM (inactive) in test [2]; 14.9 µM (inactive) in [3]; 14.1 µM (inactive) in test [4]; 14.9 µM (inactive) in test [5]; 8.57 µM (inactive) in test [6]. Moreover, the GI50 in test [7] is 19.5 µM (inactive); in test [8], 6.15 µM (inactive); in test [10], 12.7 µM (inactive); in test [11], 17.9 µM (inactive); in test [12], 17.9 µM (inactive); in [13], 13.1 µM. Moreover, the GI50 in [14] is 31.5 µM (inactive); in test [15], 17.4 µM (inactive); in test [16], 26.2 µM (inactive); in [17], 19.6 µM (inactive); in [18] it was 15.1 µM (inactive); in test [19], 18.4 µM (inactive).

Turning to `COc1cc2c(cc1OCCCN1CCOCC1)N=C[C@@H]1CCCN1C2=O`, the GI50 was 2.83 µM (inactive) in [1]; 2.21 µM (inactive) in [2]; 12.8 µM (inactive) in test [3]; 4.07 µM (inactive) in test [4]; 21.7 µM (inactive) in [5]; 13.4 µM (inactive) in test [6]. Besides, the GI50 was 6.89 µM (inactive) in test [7]; 5.82 µM (inactive) in test [8]; 24.6 µM (inactive) in [9]; 6.53 µM (inactive) in test [10]; 9.59 µM (inactive) in test [11]; 24.9 µM in [13]. Also, the GI50 is 3.33 µM (inactive) in test [14]; 18.8 µM (inactive) in test [15]; 35 µM (inactive) in [16]; 2.75 µM (inactive) in [17]; 11 µM (inactive) in test [18]; 24.7 µM (inactive) in test [19].

(Values after ChEMBL document CHEMBL1201862, “PubChem BioAssay data set” (2004).)
